According to ChEMBL document CHEMBL2424624, “Syntheses and antitumor activities of N'1,N'3-dialkyl-N'1,N'3-di-(alkylcarbonothioyl) malonohydrazide: the discovery of elesclomol” (Bioorg Med Chem Lett, 2013):
Blank lines part the entries; values can stand above or below the compound they belong to.

Legend:
Format in all cases: ADME, organism-based
[1] = Half life in nu/nu mouse at 5 mg/kg in presence of STA-4783; set-up: dose 5 mg/kg; settings: in vivo
[2] = AUC in nu/nu mouse at 5 mg/kg in presence of STA-4783; set-up: dose 5 mg/kg; settings: plasma
[3] = Cmax in rat at 5 mg/kg in presence of STA-4783; set-up: dose 5 mg/kg; settings: in vivo
[4] = Cmax in nu/nu mouse at 5 mg/kg in presence of STA-4783; set-up: dose 5 mg/kg; settings: in vivo
[5] = AUC in rat at 5 mg/kg in presence of STA-4783; set-up: dose 5 mg/kg; settings: plasma
[6] = AUC in nu/nu mouse at 25 mg/kg in presence of taxol; set-up: dose 25 mg/kg; settings: plasma
[7] = Half life in rat at 5 mg/kg; set-up: dose 5 mg/kg; settings: in vivo
[8] = Clearance in Sprague-Dawley rat at 25 mg/kg, iv; set-up: dose 25 mg/kg, route intravenous; settings: in vivo
[9] = Volume of distribution at steady state in nu/nu mouse at 25 mg/kg, iv; set-up: dose 25 mg/kg, route intravenous; settings: in vivo, read-out: Vdss
[10] = AUC in rat at 25 mg/kg in presence of taxol; set-up: dose 25 mg/kg; settings: plasma
[11] = AUC in Sprague-Dawley rat at 25 mg/kg, iv; set-up: dose 25 mg/kg, route intravenous; settings: plasma
[12] = AUC in nu/nu mouse at 25 mg/kg, iv; set-up: dose 25 mg/kg, route intravenous; settings: plasma
[13] = Cmax in Sprague-Dawley rat at 25 mg/kg, iv; set-up: dose 25 mg/kg, route intravenous; settings: in vivo
[14] = Half life in nu/nu mouse at 25 mg/kg in presence of taxol; set-up: dose 25 mg/kg; settings: in vivo
[15] = Cmax in nu/nu mouse at 25 mg/kg in presence of taxol; set-up: dose 25 mg/kg; settings: in vivo
[16] = Half life in rat at 25 mg/kg in presence of taxol; set-up: dose 25 mg/kg; settings: in vivo
[17] = Apparent terminal half life in nu/nu mouse at 25 mg/kg, iv; set-up: dose 25 mg/kg, route intravenous; settings: in vivo, read-out: betat1/2(app) (converted)
[18] = Clearance in nu/nu mouse at 25 mg/kg, iv; set-up: dose 25 mg/kg, route intravenous; settings: in vivo
[19] = Volume of distribution at steady state in Sprague-Dawley rat at 25 mg/kg, iv; set-up: dose 25 mg/kg, route intravenous; settings: in vivo, read-out: Vdss
[20] = Cmax in rat at 5 mg/kg; set-up: dose 5 mg/kg; settings: in vivo
[21] = Apparent terminal half life in Sprague-Dawley rat at 25 mg/kg, iv; set-up: dose 25 mg/kg, route intravenous; settings: in vivo, read-out: betat1/2(app) (converted)
[22] = Cmax in nu/nu mouse at 25 mg/kg, iv; set-up: dose 25 mg/kg, route intravenous; settings: in vivo
[23] = AUC in rat at 5 mg/kg; set-up: dose 5 mg/kg; settings: plasma
[24] = Cmax in rat at 25 mg/kg in presence of taxol; set-up: dose 25 mg/kg; settings: in vivo

half-life [1]: 2.26 h | AUC [2]: 2.95 µM·h | Cmax [3]: 20.4 µM | Cmax [4]: 10.6 µM | AUC [5]: 11.9 µM·h
SMILES: CC(=O)O[C@H]1C(=O)[C@@]2(C)[C@H]([C@H](OC(=O)c3ccccc3)[C@]3(O)C[C@H](OC(=O)[C@H](O)[C@@H](NC(=O)c4ccccc4)c4ccccc4)C(C)=C1C3(C)C)[C@]1(OC(C)=O)CO[C@@H]1C[C@@H]2O [PACLITAXEL]

AUC [6]: 11.9 µM·h | half-life [7]: 3.1 h | clearance [8]: 13.2 mL/min/kg | Vd [9]: 0.51 L/kg | AUC [10]: 36.8 µM·h | AUC [11]: 32.7 µM·h | AUC [12]: 35.9 µM·h | Cmax [13]: 56.3 µM | half-life [14]: 1.2 h | Cmax [15]: 37.8 µM | half-life [16]: 1.7 h | half-life [17]: 1.9 h | clearance [18]: 29 mL/min/kg | Vd [19]: 0.1 L/kg | Cmax [20]: 21.7 µM | half-life [21]: 1.94 h | Cmax [22]: 85.2 µM | AUC [23]: 10.3 µM·h | Cmax [24]: 63.3 µM
SMILES: CN(NC(=O)CC(=O)NN(C)C(=S)c1ccccc1)C(=S)c1ccccc1 [ELESCLOMOL]
